Assay results reported in PMC10835127, “Viruses traverse the human proteome through peptide interfaces that can be biomimetically leveraged for drug discovery” (Proceedings of the National Academy of Sciences of the …, 2024).
≈ marks a conversion by molar mass, not a printed value. Like-named read-outs stand apart in the source and are kept apart here. No end group written: not given here.

How the values were obtained:
[1] = Cryopreserved hepatocyte stability, mouse; format: in vitro ADME; settings: cryopreserved hepatocytes, murine hepatocytes, read-out: CLint mHep
Protocol: (§1) Cryopreserved hepatocyte stability
(§2) Tested compounds (1 μM) were incubated with human cryopreserved hepatocytes (pool of 5) (IVT Celsis) and mouse cryopreserved hepatocytes (IVT Celsis). Hepatocytes (1, 0.5 or 0.25 x10^6 cells/mL, Williams’ Medium E (WME) with 4 mM L-glutamine and 2 mM magnesium sulphate) containing tested compound (final substrate concentration 1 μM; final DMSO concentration 0.25 %) were preincubated at 37 °C. The final incubation volume was 500 μl. 3 species-specific control compounds were included with each species. At 7 time points (0, 10, 20, 40, 60, 90, and 120 min), reactions were stopped by transferring 50 μl of the incubation mixture into 0.5 μM carbamazepine in cold acetonitrile. Tested compound concentrations were analyzed by LC-MS/MS and the resulting data were used to determine the half-life and intrinsic clearance of the compound in each species. […]

[2] = Microsomal stability, mouse liver microsomes; format: in vitro ADME; settings: male, CD-1, mouse, pH 7.4; murine liver microsomes; read-out: CLint mLM
Protocol: (§3) Tested compounds (1 μM) were incubated with pooled human liver microsomes (Xenotech; pooled male and female) and pooled mouse liver microsomes (Xenotech; male CD-1 mice).
(§4) Microsomes (final protein concentrations of 0.25 and 0.5 mg/ml, 0.1 M phosphate buffer pH 7.4) containing tested compound (final substrate concentration 1 μM; final DMSO concentration 0.25 %) were preincubated at 37 °C prior to the addition of NADPH (final concentration 1 mM) to initiate the reaction. The final incubation volume was 200 μl. 3 species-specific control compounds were included with each species. At 5 time points (0, 5, 10, 20, and 40 min), reactions were stopped by transferring 50 μl of the incubation mixture into 0.5 μM carbamazepine in acetonitrile. Tested compound concentrations were analyzed by LC-MS/MS and the resulting data were used to determine the half-life and intrinsic clearance of the compound in each

Dengue virus = settings: in vitro; cited from earlier work
[3] = Cryopreserved hepatocyte stability, human; format: in vitro ADME; settings: cryopreserved hepatocytes, read-out: CLint hHep
Protocol: as §1, §2

[4] = Microsomal stability, human liver microsomes; format: in vitro ADME; settings: both sexes, pH 7.4, read-out: CLint hLM
Protocol: as §3, §4

[5] = Plasma protein binding by equilibrium dialysis, murine; format: in vitro ADME; settings: mouse, read-out: PPB (% bound)
Protocol: The free and bound fractions of the tested compounds in mouse and human plasma were determined by equilibrium dialysis using a 96-well Teflon dialysis unit (HTDialysis plate complete unit, HT Dialysis, USA). The HTDialysis plate complete unit consists of a 96-well plate with wells vertically bisected by a semipermeable membrane (membranes strips 12 to 14 kDa) creating two chambers. A 125 μL aliquot of plasma containing tested compound at 10 μM was placed on one side and 125 μL of Dulbecco‘s phosphate buffered saline (D-PBS) on the other. The plate was incubated at 37 °C for 6 hr under gentle agitation. Then, samples from both plasma and buffer compartment were analyzed by a LC-MS/MS method to measure the free fraction and the bound fraction to the plasma proteins. […]

PK parameters in mice = format: in vivo, male Swiss (CD-1) mice; settings: male, Swiss (CD-1), plasma, mouse
Protocol: PK parameters and tissue distribution in mice
The pharmacokinetic profiles of the tested compounds were evaluated in male Swiss (CD-1) mice around 5-6 weeks old (3 animals per sampling time). […]
0.2 % Tween 80 in water. Blood samples were collected (0.25 mL) from the sinus retro-orbital […]
24 hr for p.o. route. The blood samples were immediately centrifuged at 2500 rpm at +4 °C, and the plasma was stored at −80 °C. 50 μL of plasma sample was taken and 150 μL of acetonitrile was added. After protein precipitation, analysis of the molecule was performed using LC-MS/MS to determine plasma compound concentration. For liver and lung collection, 3 animals per group were involved and sampled after 2 hr and 24 hr upon 20 mg/kg p.o. administration. Animals were perfused with around 10 mL of saline solution directly into the heart to extract the maximal blood sample from the liver and the lung. Animals were then sacrificed by cervical dislocation and liver

influenza A H1N1 virus [6] = experiment: microbe, parasite or virus in culture
Kinetic solubility = format: physicochemical; settings: PBS pH 7.4 buffer, pH 7.4, aqueous buffer, kinetic from dmso stock
Protocol: 10 mM DMSO Stock solutions of tested compounds were distributed into filtration plate (Multiscreen Durapore 0.45µm) containing PBS pH 7.4 buffer to a final maximum concentration of 130 μM (1.3 % DMSO/buffer). Solutions or suspensions were shaken for 30 min at room temperature. The samples were filtered under vacuum into a collection plate and diluted 50 % with ACN for UV analysis. Quantification was performed against a Reference plate containing the same tested compounds fully solubilized in ACN/PBS buffer 1:1. Reference and Sample plates were analyzed by UPLC/UV-MS using a generic UPLC method. […]

EBV = settings: normalized mean of EBV replication readout
MiNT = biological target: T1, MiNT (Homo sapiens, UniProt P0C7P0); experiment: In vitro NEET [2Fe-2S] cluster release, MiNT; format: biochemical; settings: recombinant MiNT, 37 °C, absorbance 460 nm
T1 construct: made in house; host or cells: E. coli
T1 sequence (P0C7P0 15-127): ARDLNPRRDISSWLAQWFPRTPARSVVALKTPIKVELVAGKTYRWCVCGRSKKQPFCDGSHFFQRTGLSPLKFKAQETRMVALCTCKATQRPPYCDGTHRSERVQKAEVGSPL
Protocol: (§5) MitoNEET ([60]) and NAF-1 ([61]) cytosolic domains and MiNT ([62]) were purified from E. coli as previously published. Experiments were performed in 96-well plates at 37 °C with […] of Fe-S cluster in a buffer composed of 50 mM Tris-HCl pH 7 and 100 mM NaCl. dEF3122 was dissolved in dimethyl sulfoxide (DMSO) at 10 mM. CPEP31 was dissolved in PBS at 10 mM. After 20 min of incubation of the protein with the molecule, NEET cluster release was followed by measuring the absorbance at 460 and 800 nm over time using a plate reader (SpectraMax ID3). The absorbance at 460 nm was corrected for the variation of the baseline (absorbance at 800 nm) over time and normalized at 1 at the beginning of the kinetics.

HIV1 strain NL4-3 = format: cell-based; settings: normalized mean of HIV1 replication readout
[7] = tested on: F. novicida (strain U112); format: cell-based; settings: normalized area under the curve
influenza A H1N1 virus [8] = settings: 48 hr post-treatment, A549
[9] = not given; remark: listed apart in the source
HCV replicon = format: cell-based; settings: normalized mean of HCV replicon readout
NAF-1 = biological target: T2, NAF-1 (Homo sapiens, UniProt Q8N5K1); experiment: In vitro NEET [2Fe-2S] cluster release, NAF-1; format: biochemical; settings: recombinant NAF-1, 37 °C, absorbance 460 nm
T2 construct: MitoNEET ([60]) and NAF-1 ([61]) cytosolic domains and MiNT ([62]) were purified from E. coli as previously published; made in house; host or cells: E. coli
T2 sequence (Q8N5K1 61-135 limits assumed): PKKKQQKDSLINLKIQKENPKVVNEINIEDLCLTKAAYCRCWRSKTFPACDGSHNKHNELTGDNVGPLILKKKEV
Protocol: as §5

MitoNEET = biological target: T3, MitoNEET (Homo sapiens, UniProt Q9NZ45); experiment: In vitro NEET [2Fe-2S] cluster release, MitoNEET; format: biochemical; settings: recombinant MitoNEET, 37 °C, absorbance 460 nm
T3 construct: MitoNEET ([60]) and NAF-1 ([61]) cytosolic domains and MiNT ([62]) were purified from E. coli as previously published; made in house; host or cells: E. coli
T3 sequence (Q9NZ45 32-108 limits assumed): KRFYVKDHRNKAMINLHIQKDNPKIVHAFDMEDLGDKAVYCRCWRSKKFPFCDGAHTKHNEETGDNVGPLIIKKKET
Protocol: as §5

[10] = H1N1, A549, read-out: Neuraminidase activity assay IC50
[11] = H1N1, A549, read-out: IC50 for the inhibition of influenza virus replication

COc1ccc(C(=O)Nc2sc3c(c2C(=O)O)CCC(C)(C)C3)cc1OC [dEF2788]
hepatocyte CLint at 1 µM [1]: 116 µL/min/1e6 cells
microsomal CLint at 1 µM [2]: 14 µL/min/mg
activity against Dengue virus replication (Dengue virus): active in vitro against Dengue virus replication
hepatocyte CLint at 1 µM [3]: 31 µL/min/1e6 cells
microsomal CLint at 1 µM [4]: < 14 µL/min/mg
fraction unbound at 6 h, 10 µM [5]: < 0.01
half-life (PK parameters in mice; iv 0.5 mg/kg, read-out: T1/2 iv (converted)): 0.8 h
Cmax (PK parameters in mice; po 5 mg/kg (dose for AUC)): 71 ng/mL
bioavailability (PK parameters in mice; po 5 mg/kg, iv 0.5 mg/kg): 26%
IC50 (influenza A H1N1 virus [6]; [10]): 50 nM
solubility kinetic at 30 min (Kinetic solubility): 104 µM (≈ 40.5 µg/mL)

O=C(Nc1scc(C2CCc3ccccc3C2)c1C(=O)O)c1ccccc1 (racemic) [dEF2905]
hepatocyte CLint at 1 µM [1]: < 5 µL/min/1e6 cells
microsomal CLint at 1 µM [2]: 29 µL/min/mg
hepatocyte CLint at 1 µM [3]: 65 µL/min/1e6 cells
fraction unbound at 6 h, 10 µM [5]: 0.001
half-life (PK parameters in mice; iv 0.25 mg/kg, read-out: T1/2 iv (converted)): 3.8 h
Cmax (PK parameters in mice; po 2 mg/kg (dose for AUC)): 1140 ng/mL
bioavailability (PK parameters in mice; po 2 mg/kg, iv 0.25 mg/kg): 33%
IC50 (influenza A H1N1 virus [6]; [10]): 18 nM
solubility kinetic at 30 min (Kinetic solubility): 48 µM (≈ 18.1 µg/mL)

CCOC(=O)c1c(NC(=O)C2CCCCC2C(=O)O)sc2c1CCC(C(C)(C)C)C2 (stereo not drawn) [dEF2586]
IC50 (influenza A H1N1 virus [6]; [11]): 3000 nM
solubility kinetic at 30 min (Kinetic solubility): 173 µM (≈ 75.4 µg/mL)

O=C(Nc1ccc(Cl)cc1)c1c(NC(=O)C2CCCCC2C(=O)O)sc2c1CCC2 (stereo not drawn) [dEF384]
microsomal CLint at 1 µM [2]: < 20 µL/min/mg
microsomal CLint at 1 µM [4]: < 14 µL/min/mg
fraction unbound at 6 h, 10 µM [5]: < 0.01
half-life (PK parameters in mice; iv 0.9 mg/kg, read-out: T1/2 iv (converted)): 1.08 h
Cmax (PK parameters in mice; po 10 mg/kg): 31300 ng/mL
bioavailability (PK parameters in mice; po 10 mg/kg, iv 0.9 mg/kg): 71%
half-life (PK parameters in mice; po 10 mg/kg, read-out: T1/2 po (converted)): 1.74 h
IC50 (influenza A H1N1 virus [6]; [11]): 5000 nM
solubility kinetic at 30 min (Kinetic solubility): 74 µM (≈ 33.1 µg/mL)

EVVLFLLNVF [CPEP31]
EBV Norm MEAN (EBV): 0.8028
interaction by [2Fe-2S] cluster release assay (MiNT): Interactions were validated
HIV1 Norm MEAN (HIV1 strain NL4-3): 8.9
Francisella novicida Norm AUC [7]: 0.6912
Neuraminidase activity normalized to vehicle (influenza A H1N1 virus [8]; 200 µM peptide): 0,0494
Neuraminidase activity normalized to vehicle (influenza A H1N1 virus [8]; 0,823 µM peptide): 0,7352
Neuraminidase activity normalized to vehicle (influenza A H1N1 virus [8]; 22,2 µM peptide): 0,2851
Neuraminidase activity normalized to vehicle (influenza A H1N1 virus [8]; 2,4691 µM peptide): 0,951
Neuraminidase activity normalized to vehicle (influenza A H1N1 virus [8]; 7,4074 µM peptide): 0,7335
Neuraminidase activity normalized to vehicle (influenza A H1N1 virus [8]; 66,6667 µM peptide): 0,114
selectivity ratio: > 12
CC50 [9]: > 100000 nM
HCV Norm MEAN (HCV replicon): 0.4448
interaction by [2Fe-2S] cluster release assay (NAF-1): Interactions were validated
interaction by [2Fe-2S] cluster release assay (MitoNEET): Interactions were validated

COc1ccc(C(=O)Nc2sc3c(c2C(=O)O)CCC(C(C)(C)C)C3)cc1 (stereo not drawn) [dEF2665]
microsomal CLint at 1 µM [2]: 50 µL/min/mg
microsomal CLint at 1 µM [4]: 38 µL/min/mg
fraction unbound at 6 h, 10 µM [5]: 0.001
IC50 (influenza A H1N1 virus [6]; [11]): 150 nM
solubility kinetic at 30 min (Kinetic solubility): < 5 µM
